Assay results reported in patent USRE38132E1, “Phenylpyrrolidines, phenylimidazolidines,3-phenyl-1,3-oxizolidines and 3-phenyl-1,3-thiazolidines and their use in the treatment of inflammatory disease” (Boehringer Ingelheim Pharmaceuticals, Inc., priority 1997, dated 2003).
Like-named read-outs stand apart in the source and are kept apart here.

Key:
[1] = system: LFA-1 dependent aggregation of JY cells; assay: JY cell homotypic aggregation assay (PMA-stimulated); format: cell-based, human; details: Homo sapiens
Source text: This aggregation can be enhanced by the addition of phorbol esters. […] Thus, the extent of LFA-1-dependent binding may be determined by assessing the extent of spontaneous or phorbol ester-dependent aggregate formation.
An agent which interferes with LFA-1 -dependent aggregation can be identified through the use of an assay capable of determining whether the agent interferes with either spontaneous, or phorbol ester-dependent aggregation of Epstein-Barr virus transformed cells. It is preferable to employ cells of the JY cell line (Terhost, L; et aL, Proc. Natl. Acad. Sci. USA, 1976, 73, 910) for the homotypic aggregation assay. This assay, capable of measuring LFA-1 dependent aggregation, may be employed to identify agents which act as antagonists to the LFA-1 dependent aggregation. Such agents may act by impairing the ability of either LFA-1 or ICAM-1 to mediate aggregation. Thus, agents may be examined to directly determine if they are antagonists of LFA-1 aggregation.
(§1) Description of Assay Protocol:
JY cells are cultured in RPMI 1640 culture medium supplemented with 10% fetal calf serum and 50 μg/mL gentamycin. The cells are cultured at 37° C. in an atmosphere of 5% CO2 at a relative humidity of 95%. JY cells used in this assay are washed two times with RPMI 1640 medium containing 5 mM HEPES buffer and resuspended to a concentration of 2·10^6 cells/mL. Added to flat-bottomed, 96-well microtiter plates are 50 μL of test compound diluted in complete medium, 50 μL of complete medium with or without purified monoclonal antibodies (negative and positive controls for inhibition, respectively), 50 μL of complete medium containing 200 ng/mL of the phorbol ester phorbol myristate acetate (PMA) and 100 μL of cells at a concentration of 2·10^6 cells/mL in complete medium. This yields a final concentration of […] PMA and 2·10^5 cells/well. Cells are allowed to settle spontaneously, and the degree of aggregation is scored at various time points. […] This procedure has been described by Rothlein, R. R.; et al., J. Exp. Med. 1986, 163, 1132-1149. This paper also reported that antibody to LFA-1 is capable of inhibiting the formation of aggregates.
(§2) Data are reported as the concentration or concentration range (in μM) at which 50% of binding is inhibited.

[2] = system: cell bound form of LFA-1 (CD18, CD11a) with ICAM-1, SKW3 cells; assay: Inhibition of SKW3 cell binding to ICAM-1 (PMA-stimulated); format: cell-based, human; details: Homo sapiens, read-out: Assay to Detect SKW3 Cells Binding to ICAM IC50
Source text: (§3) Assay to Determine Inhibition of SKW3 cell binding to ICAM-1 vs. Binding to Fibronectin
(§4) This assay is used to test the selective ability of a test compound to antagonize the interaction of a cell bound form of LFA-1 with ICAM-1. The assay uses a human T cell line, SKW3 cells which express CD18, CD11a and other integrins not related to CD18, CD11a and which can be “activated” by phorbol esters. Phorbol esters enhance the affinity of CD18, CD11a for ICAM-1.
(§5) This same lymphocyte line, SKW3, also adheres to fibronectin in the presence of phorbol esters. This adhesion is mediated by membrane proteins independent of the LFA-1/ICAM-1 interaction. The SKW3 cells express another integrin, VLA4, which is the receptor for fibronectin. Therefore, as a preliminary indication of the selectivity of a test compounds to interfere with Leukointegrin/CAM interactions but not other integrin-ligand binding events, a compound can be tested for its ability to antagonize cell bound fibronectin receptor in its interaction with purified fibronectin. Compounds that inhibit this fibronectin adhesion are not specific antagonists of the CD18, CD11a/ICAM-1 binding.
as §1
(§6) Ninety-six well plates are coated with either sICAM-1(40 μg/mL) or fibronectin (100 μg/mL) in Diluting buffer for 1 h at room temperature. Added to the wells are 100 μL of the appropriately diluted test compound or 100 μL of RPMI with 15% fetal bovine serum as a control. SKW3 cells, which express CD18, CD11a and VLA4 (Dustin, M.; et al., J. Exp. Med. 1987, 165, 672-692) are washed and suspended to a concentration of 10^6 cells/mL in RPMI with 15% fetal bovine serum. Immediately before adding the cells to the wells, cells are stimulated with the phorbol ester 12-myristate 13-acetate (PMA) for a final concentration of […]. 100 μL of cells are then added to the wells resulting in a final concentration of […]. The plates are incubated for 2 h at 37° C. Unbound or loosely bound cells are gently washed away with RPMI.
as §2

[3] = target: T1, interaction of ICAM-1 with the Leukointegrin CD18/CD11a (LFA-1) (Homo sapiens, UniProt P05107+P20701); assay: Assay to determine inhibition of LFA-1 binding to ICAM-1 (immunopurified LFA-1 on plate-bound sICAM-1, ELISA readout)
T1 construct: endogenous in cells; sICAM-1: made in house, secreted from transfected CHO DUX cells
Source text: Assay to Determine Inhibition of LFA-1 Binding to ICAM-1 Purpose of Assay: This assay protocol is designed to study the direct antagonism, by a test compound, of the interaction of the CAM, ICAM-1 with the Leukointegrin CD18/CD11a (LFA-1). […] After collection and neutralization of fractions from the TS2/4 column, samples are pooled and precleared with Protein G agarose. […] Wells are washed 3 times with Diluting Buffer. The bound LFA-1 is detected by the addition of a polyclonal antibody directed against a peptide corresponding to the CD18 cytoplasmic tail in a 1:100 dilution with Diluting Buffer and 1% BSA and allowed to incubate for 45 min at 37° C. Wells are washed 3 times with Diluting Buffer and the bound polyclonal antibody is detected by the addition of a 1:4000 dilution of horse radish peroxidase conjugated to goat immunoglobulin directed against rabbit immunoglobulin. […] The lack of the addition of LFA-1 to the binding assay is used as a background control for all samples. A dose-response curve is obtained for all test compounds. Results of these tests are reported as Kd's in μM.

[4] = system: cell bound fibronectin receptor (VLA4) with fibronectin, SKW3 cells; assay: Inhibition of SKW3 cell binding to fibronectin (selectivity counter-assay); format: cell-based, human; details: for IC50: Homo sapiens, read-out: Assay to Detect SKW3 Cells Binding to FIBRONECTIN IC50
Source text: as §3, §4, §5, §1, §6, §2

[5] = SKW3, values marked c: no inhibition observed up to highest dose
[6] = values marked e approximated from incomplete dose-response curve
[7] = values marked c: no inhibition observed up to highest dose
[8] = No inh = no inhibition observed up to highest dose, exact quantification not always possible due to intrinsic toxicity

T1 sequence (P20701 26-1170): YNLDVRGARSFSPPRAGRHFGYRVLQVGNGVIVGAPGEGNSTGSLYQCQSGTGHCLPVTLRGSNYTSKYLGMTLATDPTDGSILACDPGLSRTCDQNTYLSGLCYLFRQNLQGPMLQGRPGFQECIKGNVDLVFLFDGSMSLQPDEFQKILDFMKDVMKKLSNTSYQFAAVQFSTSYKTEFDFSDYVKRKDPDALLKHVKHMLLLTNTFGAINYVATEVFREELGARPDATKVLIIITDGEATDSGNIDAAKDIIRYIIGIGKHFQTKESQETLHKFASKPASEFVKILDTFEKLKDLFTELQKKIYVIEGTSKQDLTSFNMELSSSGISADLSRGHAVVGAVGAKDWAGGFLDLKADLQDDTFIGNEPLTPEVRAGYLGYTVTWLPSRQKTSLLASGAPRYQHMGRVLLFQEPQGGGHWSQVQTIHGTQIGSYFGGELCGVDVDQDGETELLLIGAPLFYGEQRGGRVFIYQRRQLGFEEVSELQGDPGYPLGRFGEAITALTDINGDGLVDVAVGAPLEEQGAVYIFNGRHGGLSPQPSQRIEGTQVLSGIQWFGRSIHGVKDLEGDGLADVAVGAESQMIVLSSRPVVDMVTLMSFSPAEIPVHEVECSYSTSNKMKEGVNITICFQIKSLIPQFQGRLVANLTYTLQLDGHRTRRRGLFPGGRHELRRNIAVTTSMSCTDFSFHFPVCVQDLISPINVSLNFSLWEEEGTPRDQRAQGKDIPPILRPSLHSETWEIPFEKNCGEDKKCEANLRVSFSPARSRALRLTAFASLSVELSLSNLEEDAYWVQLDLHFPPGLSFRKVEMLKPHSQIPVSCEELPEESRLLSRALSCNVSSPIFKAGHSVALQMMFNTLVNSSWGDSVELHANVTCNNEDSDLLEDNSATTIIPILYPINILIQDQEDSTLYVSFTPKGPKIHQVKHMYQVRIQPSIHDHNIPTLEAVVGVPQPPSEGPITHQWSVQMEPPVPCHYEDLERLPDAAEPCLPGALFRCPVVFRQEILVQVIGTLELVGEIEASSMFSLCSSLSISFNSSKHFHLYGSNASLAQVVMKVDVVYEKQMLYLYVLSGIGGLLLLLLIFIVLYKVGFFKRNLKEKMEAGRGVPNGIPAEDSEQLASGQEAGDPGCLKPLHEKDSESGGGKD
T1 sequence (P05107 23-769): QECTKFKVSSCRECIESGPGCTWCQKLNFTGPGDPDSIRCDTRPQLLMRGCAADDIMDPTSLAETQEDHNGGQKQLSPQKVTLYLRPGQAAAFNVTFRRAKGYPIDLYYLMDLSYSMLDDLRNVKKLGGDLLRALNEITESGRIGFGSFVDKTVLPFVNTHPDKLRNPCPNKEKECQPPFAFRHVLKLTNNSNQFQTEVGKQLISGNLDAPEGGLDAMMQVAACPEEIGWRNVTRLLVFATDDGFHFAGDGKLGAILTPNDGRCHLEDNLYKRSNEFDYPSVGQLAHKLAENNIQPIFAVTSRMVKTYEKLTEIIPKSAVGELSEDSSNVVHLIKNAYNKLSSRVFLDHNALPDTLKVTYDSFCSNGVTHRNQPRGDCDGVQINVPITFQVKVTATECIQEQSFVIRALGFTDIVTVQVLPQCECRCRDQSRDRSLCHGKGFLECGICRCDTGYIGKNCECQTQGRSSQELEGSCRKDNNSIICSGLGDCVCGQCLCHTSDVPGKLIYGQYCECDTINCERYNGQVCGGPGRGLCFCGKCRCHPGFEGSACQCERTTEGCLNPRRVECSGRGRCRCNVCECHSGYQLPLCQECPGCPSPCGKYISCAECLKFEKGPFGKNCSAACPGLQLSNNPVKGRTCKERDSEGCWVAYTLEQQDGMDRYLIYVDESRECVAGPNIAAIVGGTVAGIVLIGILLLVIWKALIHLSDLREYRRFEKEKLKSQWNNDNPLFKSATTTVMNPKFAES

Row | Compound | IC50 [1] [µM] | Cellular Toxicity Assay MTT LD50 (SKW3 cells) [µM] | IC50 [2, 5] [µM] | Kd [3, 6] [µM] | IC50 [4, 5] [µM] | Assay to Detect SKW3 Cells Binding to FIBRONECTIN IC50 [4, 7] | IC50 ([2]; SKW3) [µM] | Kd [3] [µM] | Assay to Detect SKW3 Cells Binding to FIBRONECTIN IC50 [4, 8] | IC50 ([4]; SKW3, No inh = no inhibition observed up to highest dose, exact quantification not always possible due to intrinsic toxicity) [µM]
1 | CN1C(=O)N(c2cc(C(F)(F)F)cc(C(F)(F)F)c2)C(=O)[C@@]1(C)Cc1ccc(Br)cc1 [Example 100] | 0.7 | >400 | 8 to 15 | 0.19 | > 60 | – | – | – | – | –
2 | C[C@@]1(Cc2ccc(Br)cc2)C(=O)N(c2cc(Cl)cc(Cl)c2)C(=O)N1Cc1ccccn1 [Example 110] | 9 | 200 to 400 | 25 | 0.15 | – | No inh^c | – | – | – | –
3 | O=C1N[C@H](Cc2ccccc2)C(=O)N1c1cc(Cl)cc(Cl)c1 [Example 15] | 25 to 50 | 125 to 250 | 31 to 63 | 2.3 | – | No Inh^c | – | – | – | –
4 | C[C@@]1(Cc2ccc(Br)cc2)C(=O)N(c2cc(Cl)cc(Cl)c2)C(=O)N1Cc1ccccc1O [Example 247] | 2.3 | 40 to 80 | – | – | – | – | 1.5 to 3 | 0.23 | No inh^c | –
5 | CC1(Cc2ccc(Br)cc2)NC(=O)N(c2cc(Cl)cc(Cl)c2)C1=S (centres unmarked) [Example 81] | 6.3 | 25 to 50 | 1 to 3 | 0.08 | – | No inh^c | – | – | – | –
6 | CC(C)N1C(=O)N(c2cc(Cl)cc(Cl)c2)C(=O)[C@@]1(C)Cc1ccc(Br)cc1 [Example 273] | 2 | 150 to 300 | – | – | – | – | 38 | 0.19 | – | > 75
7 | C[C@@]1(Cc2ccc(Br)cc2)C(=O)N(c2cc(Cl)cc(Cl)c2)C(=O)N1C[C@H](O)c1ccccc1 [Example 132] | 2.4 | 200 to 400 | 5 | 0.22 | – | No inh^c | – | – | – | –
8 | C[C@]1(Cc2ccc(-c3cccnc3)cc2)NC(=O)N(c2cc(Cl)cc(Cl)c2)C1=O [Example 190] | 1.4 | 50 to 100 | 6 to 12 | 0.43 | – | No inh^c | – | – | – | –
9 | CN1C(=O)N(c2cc(Cl)cc(Cl)c2)C(=O)C1(C)Cc1cc(Br)cc(Br)c1 (centres unmarked) [Example 164] | 25 | 100 to 200 | > 100 | 0.28 | – | No inh^c | – | – | – | –
10 | C[C@@]1(Cc2ccc(Br)cc2)C(=O)N(c2cc(Cl)cc(Cl)c2)C(=O)N1CCCCNC(=N)N [Example 263] | 0.8 | 20 to 40 | – | – | – | – | 0.8 to 1.6 | 0.09 | No inh^c | –
11 | CC(C)N1C(=O)N(c2cc(Cl)cc(Cl)c2)C(=O)C1Cc1ccc(Br)cc1 (centres unmarked) [Example 34] | 1.8 | 200 to 400 | 6 | 0.13 | – | No inh^c | – | – | – | –
12 | C[C@@]1(Cc2ccc(Br)cc2)C(=O)N(c2cc(Cl)cc(Cl)c2)C(=O)N1C[C@@H](O)c1ccccc1 [Example 133] | 0.4 | >400 | 5 to 10 | 0.15 | – | No inh^c | – | – | – | –
13 | C[C@@]1(Cc2ccc(Br)cc2)C(=O)N(c2cc(Cl)cc(Cl)c2)C(=O)N1CCCS(=O)(=O)O [Example 249] | 0.4 | 200 to 400 | – | – | – | – | < 1 | 0.16 | No inh^c | –
14 | CC(=O)OCCN1C(=O)N(c2cc(Cl)cc(Cl)c2)C(=O)[C@@]1(C)Cc1ccc(Br)cc1 [Example 260] | 1.1 | 200 to 400 | – | – | – | – | 19 to 38 | 0.07 | No inh^c | –
15 | Cc1cccc(C)c1CC1(C)C(=O)N(c2cc(Cl)cc(Cl)c2)C(=O)N1C (centres unmarked) [Example 163] | 2.4 | 200 to 400 | 9 to 19 | 0.16 | > 75 | – | – | – | – | –
16 | CN1C(=O)N(c2cc(Cl)cc(Cl)c2)C(=O)[C@@H]1Cc1ccccc1 [Example 87] | 50 | >500 | 50 to 100 | 2 | > 100 | – | – | – | – | –
17 | CC1(Cc2ccccc2)NC(=O)N(c2cc(Cl)cc(Cl)c2)C1=O (centres unmarked) [Example 18] | 6 | 125 to 250 | 32 to 63 | 0.76 | > 125 | – | – | – | – | –
18 | CCN1C(=O)N(c2cc(Cl)cc(Cl)c2)C(=O)[C@@]1(C)Cc1ccc(Br)cc1 [Example 97] | 2 | >350 | 5 to 10 | 0.023 | – | No inh^c | – | – | – | –
19 | C[C@@]1(Cc2ccc(Br)cc2)C(=O)N(c2cc(Cl)cc(Cl)c2)C(=O)N1Cc1cccc(C(=N)N)c1 [Example 243] | 3.1 | 10 to 20 | – | – | – | – | 5 to 6 | 0.11 | No inh^c | –
